Results as given in patent US6914045B2, “Glycopeptide antibiotics” (Wyeth Holdings Corporation, priority 2001, dated 2005).
Converted amounts (≈) assume the structure as drawn.

Columns and labels:
[1] = tested on: Staphylococcus aureus-SMITH (GC 4543); test: acute lethal infection in mice; assay type: in vivo; settings: acute lethal infection, female CD-1 mice, intraperitoneal challenge, intravenous 30 min. after infection, 7 day survival
In short: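 Female CD-1 mice (20+/−2 gm) were infected intraperitoneally with enough bacteria, suspended in trypticase soy broth or hog gastric mucin, to kill untreated controls within 24-48 hr. Compound in saline or 5% dextrose was given intravenously 30 min post-infection, five mice per dose. ED50 came from pooled 7 day survival of 3 tests.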

Streptococcus sp. = test: in vitro antibacterial evaluation, MIC by broth dilution; assay type: cell-based; settings: broth dilution, 18 hours at 35° C.
In short: (§1)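 Step 1: dilute antibiotic across 64-0.06 μg/mL in Muller-Hinton II […]. Step 2: inoculate at 5×10^5 CFU/mL.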

Enterococcus sp. = test: as above; assay type: cell-based; settings: broth dilution, 18 hours at 35° C.
In short: as §1

Staphylococcus sp. = test: as above; assay type: cell-based; settings: broth dilution, 18 hours at 35° C.
In short: as §1

Escherichia coli = test: as above; assay type: cell-based; settings: 18 hours at 35° C.

Q: For `CC(c1ccccc1)C1NC(=O)CNC(=O)C(CO)NC(=O)C(C(O)C2CNC(=N)N2C2OC(CO)C(O)C(O)C2O)NC(=O)C(C(O)C2CNC(=N)N2)NC(=O)C(Cc2ccc(OC3OC(CO)C(OC4OC(CO)C(OCc5ccc(OCc6ccccc6)cc5)C(O)C4O)C(O)C3O)cc2)NC1=O` (stereo not drawn) [Example 231a, Cyclo[glycyl-β-methylphenylalanyl-O-[4-O-[4-O-[4-(phenylmethoxy)benzyl]hexopyranosyl]-hexopyranosyl]tyrosyl-3-(2-iminoimidazolidin-4-yl)seryl-3-(3-hexopyranosyl-2-iminoimidazolidin-4-yl)serylseryl]], which median effective dose (ED50), Staphylococcus aureus-SMITH (GC 4543) [1] is on record?
A: The median effective dose (ED50), Staphylococcus aureus-SMITH (GC 4543) was 0.06 mg/kg.

Q: And the “MIC Streptococcus agalactiae (GC 4564)” value (Streptococcus sp.)?
A: The value was under 0.06 µg/mL.

Q: And the “MIC Streptococcus pneumoniae (ATCC 6301)” value (Streptococcus sp.)?
A: Its value is under 0.06 µg/mL.

Q: What about the “MIC Streptococcus pneumoniae (GC 1894)” value (Streptococcus sp.) of the same compound?
A: The value was under 0.06 µg/mL.

Q: What about the “MIC Streptococcus pneumoniae (GC 4565)” value (Streptococcus sp.) of the same compound?
A: Its value is under 0.06 µg/mL.

Q: What about the “MIC Streptococcus pyogenes (GC 4563)” value (Streptococcus sp.) of the same compound?
A: Its value is under 0.06 µg/mL.

Q: And the “MIC Streptococcus pneumoniae (ATCC 6301)” value (Streptococcus sp.; inoculum 5×10^5 CFU/mL, strain ATCC 6301)?
A: The value was under 0.06 µg/mL.

Q: And the “MIC Streptococcus pneumoniae (GC 1894)” value (Streptococcus sp.; inoculum 5×10^5 CFU/mL, strain GC 1894)?
A: The value was under 0.06 µg/mL.

Q: And the “MIC Streptococcus pyogenes (GC 4563)” value (Streptococcus sp.; inoculum 5×10^5 CFU/mL, strain GC 4563)?
A: Its value is under 0.06 µg/mL.

Q: What about the “MIC Streptococcus agalactiae (GC 4564)” value (Streptococcus sp.; inoculum 5×10^5 CFU/mL, strain GC 4564) of the same compound?
A: The value was under 0.06 µg/mL.

Q: And the “MIC Streptococcus pneumoniae (GC 4565)” value (Streptococcus sp.; inoculum 5×10^5 CFU/mL, strain GC 4565)?
A: The value was under 0.06 µg/mL.

Q: What about the “MIC Enterococcus avium (GC 4558)” value (Enterococcus sp.) of the same compound?
A: Its value is 2 µg/mL (≈ 1.34 µM).

Q: And the “MIC Enterococcus faecalis (ATCC 29212)” value (Enterococcus sp.)?
A: Its value is 2 µg/mL (≈ 1.34 µM).

Q: What about the “MIC Enterococcus faecalis (GC 2242)” value (Enterococcus sp.) of the same compound?
A: Its value is 2 to 4 µg/mL.

Q: And the “MIC Enterococcus faecalis (GC 2691)” value (Enterococcus sp.)?
A: The value was 2 µg/mL (≈ 1.34 µM).

Q: What about the “MIC Enterococcus faecalis (GC 3059)” value (Enterococcus sp.) of the same compound?
A: Its value is 1 to 2 µg/mL.

Q: And the “MIC Enterococcus faecalis (GC 4552)” value (Enterococcus sp.)?
A: Its value is 4 µg/mL (≈ 2.68 µM).

Q: What about the “MIC Enterococcus faecalis (GC 4553)” value (Enterococcus sp.) of the same compound?
A: Its value is 4 µg/mL (≈ 2.68 µM).

Q: What about the “MIC Enterococcus faecalis (GC 4554)” value (Enterococcus sp.) of the same compound?
A: Its value is 4 µg/mL (≈ 2.68 µM).

Q: And the “MIC Enterococcus faecalis (GC 6189)” value (Enterococcus sp.)?
A: The value was 1 to 2 µg/mL.

Q: And the “MIC Enterococcus faecium (GC 2243)” value (Enterococcus sp.)?
A: The value was 2 µg/mL (≈ 1.34 µM).

Q: What about the “MIC Enterococcus faecium (GC 4556)” value (Enterococcus sp.) of the same compound?
A: Its value is 2 to 4 µg/mL.

Q: And the “MIC Enterococcus faecium (GC 4557)” value (Enterococcus sp.)?
A: Its value is 2 µg/mL (≈ 1.34 µM).

Q: What about the “MIC Enterococcus faecalis (ATCC 29212)” value (Enterococcus sp.; inoculum 5×10^5 CFU/mL, strain ATCC 29212) of the same compound?
A: The value was 2 µg/mL (≈ 1.34 µM).

Q: And the “MIC Enterococcus faecalis (GC 2242)” value (Enterococcus sp.; inoculum 5×10^5 CFU/mL, strain GC 2242)?
A: Its value is 2 to 4 µg/mL.

Q: What about the “MIC Enterococcus faecium (GC 2243)” value (Enterococcus sp.; inoculum 5×10^5 CFU/mL, strain GC 2243) of the same compound?
A: Its value is 2 µg/mL (≈ 1.34 µM).

Q: And the “MIC Enterococcus faecalis (GC 2691)” value (Enterococcus sp.; inoculum 5×10^5 CFU/mL, strain GC 2691)?
A: The value was 2 µg/mL (≈ 1.34 µM).

Q: And the “MIC Enterococcus faecalis (GC 3059)” value (Enterococcus sp.; inoculum 5×10^5 CFU/mL, strain GC 3059)?
A: Its value is 1 to 2 µg/mL.

Q: And the “MIC Enterococcus faecalis (GC 4552)” value (Enterococcus sp.; inoculum 5×10^5 CFU/mL, strain GC 4552)?
A: The value was 4 µg/mL (≈ 2.68 µM).

Q: What about the “MIC Enterococcus faecalis (GC 4553)” value (Enterococcus sp.; inoculum 5×10^5 CFU/mL, strain GC 4553) of the same compound?
A: Its value is 4 µg/mL (≈ 2.68 µM).

Q: What about the “MIC Enterococcus faecalis (GC 4554)” value (Enterococcus sp.; inoculum 5×10^5 CFU/mL, strain GC 4554) of the same compound?
A: Its value is 4 µg/mL (≈ 2.68 µM).

Q: And the “MIC Enterococcus faecium (GC 4556)” value (Enterococcus sp.; inoculum 5×10^5 CFU/mL, strain GC 4556)?
A: Its value is 2 to 4 µg/mL.

Q: What about the “MIC Enterococcus faecium (GC 4557)” value (Enterococcus sp.; inoculum 5×10^5 CFU/mL, strain GC 4557) of the same compound?
A: The value was 2 µg/mL (≈ 1.34 µM).

Q: And the “MIC Enterococcus avium (GC 4558)” value (Enterococcus sp.; inoculum 5×10^5 CFU/mL, strain GC 4558)?
A: Its value is 2 µg/mL (≈ 1.34 µM).

Q: And the “MIC Enterococcus faecalis (GC 6189)” value (Enterococcus sp.; inoculum 5×10^5 CFU/mL, strain GC 6189)?
A: The value was 1 to 2 µg/mL.

Q: And the “MIC Coagulase Negative Staphylococcus (GC 4547)” value (Staphylococcus sp.)?
A: The value was 1 µg/mL (≈ 0.67 µM).

Q: And the “MIC Coagulase Negative Staphylococcus (GC 4548)” value (Staphylococcus sp.)?
A: Its value is 0.12 to 0.25 µg/mL.

Q: What about the “MIC Coagulase Negative Staphylococcus (GC 4549)” value (Staphylococcus sp.) of the same compound?
A: The value was over 0.12 to 0.25 µg/mL.

Q: What about the “MIC Coagulase Negative Staphylococcus (GC 4551)” value (Staphylococcus sp.) of the same compound?
A: Its value is 0.5 µg/mL (≈ 0.335 µM).

Q: And the “MIC Coagulase Negative Staphylococcus (GC 6257)” value (Staphylococcus sp.)?
A: Its value is 0.5 µg/mL (≈ 0.335 µM).

Q: What about the “MIC Staphylococcus aureus (ATCC 29213)” value (Staphylococcus sp.) of the same compound?
A: Its value is 1 to 2 µg/mL.

Q: What about the “MIC Staphylococcus aureus (GC 1131)” value (Staphylococcus sp.) of the same compound?
A: The value was 1 to 2 µg/mL.

Q: What about the “MIC Staphylococcus aureus (GC 3051)” value (Staphylococcus sp.) of the same compound?
A: The value was 1 µg/mL (≈ 0.67 µM).

Q: And the “MIC Staphylococcus aureus (GC 3053)” value (Staphylococcus sp.)?
A: Its value is 1 to 2 µg/mL.

Q: What about the “MIC Staphylococcus aureus (GC 4541)” value (Staphylococcus sp.) of the same compound?
A: Its value is 1 to 2 µg/mL.

Q: What about the “MIC Staphylococcus aureus (GC 4542)” value (Staphylococcus sp.) of the same compound?
A: Its value is 0.5 to 1 µg/mL.

Q: What about the “MIC Staphylococcus aureus (GC 4544)” value (Staphylococcus sp.) of the same compound?
A: Its value is 2 to 4 µg/mL.

Q: And the “MIC Staphylococcus aureus (GC 4545)” value (Staphylococcus sp.)?
A: The value was 1 to 2 µg/mL.

Q: And the “MIC Staphylococcus aureus-SMITH (GC 4543)” value (Staphylococcus sp.)?
A: The value was 1 µg/mL (≈ 0.67 µM).

Q: And the “MIC Staphylococcus haemolyticus (GC 4546)” value (Staphylococcus sp.)?
A: The value was 1 µg/mL (≈ 0.67 µM).

Q: What about the “MIC Staphylococcus aureus (ATCC 29213)” value (Staphylococcus sp.; strain ATCC 29213) of the same compound?
A: The value was 1 to 2 µg/mL.

Q: What about the “MIC Staphylococcus aureus (GC 1131)” value (Staphylococcus sp.; strain GC 1131) of the same compound?
A: Its value is 1 to 2 µg/mL.

Q: And the “MIC Staphylococcus aureus (GC 3051)” value (Staphylococcus sp.; strain GC 3051)?
A: The value was 1 µg/mL (≈ 0.67 µM).

Q: What about the “MIC Staphylococcus aureus (GC 3053)” value (Staphylococcus sp.; strain GC 3053) of the same compound?
A: Its value is 1 to 2 µg/mL.

Q: And the “MIC Staphylococcus aureus (GC 4541)” value (Staphylococcus sp.; strain GC 4541)?
A: The value was 1 to 2 µg/mL.

Q: What about the “MIC Staphylococcus aureus (GC 4542)” value (Staphylococcus sp.; strain GC 4542) of the same compound?
A: Its value is 0.5 to 1 µg/mL.

Q: What about the “MIC Staphylococcus aureus-SMITH (GC 4543)” value (Staphylococcus sp.; strain GC 4543) of the same compound?
A: Its value is 1 µg/mL (≈ 0.67 µM).

Q: What about the “MIC Staphylococcus aureus (GC 4544)” value (Staphylococcus sp.; strain GC 4544) of the same compound?
A: Its value is 2 to 4 µg/mL.

Q: What about the “MIC Staphylococcus aureus (GC 4545)” value (Staphylococcus sp.; strain GC 4545) of the same compound?
A: The value was 1 to 2 µg/mL.

Q: And the “MIC Staphylococcus haemolyticus (GC 4546)” value (Staphylococcus sp.; strain GC 4546)?
A: Its value is 1 µg/mL (≈ 0.67 µM).

Q: What about the “MIC Coagulase Negative Staphylococcus (GC 4547)” value (Staphylococcus sp.; strain GC 4547) of the same compound?
A: The value was 1 µg/mL (≈ 0.67 µM).

Q: And the “MIC Coagulase Negative Staphylococcus (GC 4548)” value (Staphylococcus sp.; strain GC 4548)?
A: The value was 0.12 to 0.25 µg/mL.

Q: What about the “MIC Coagulase Negative Staphylococcus (GC 4549)” value (Staphylococcus sp.; strain GC 4549) of the same compound?
A: Its value is under 0.12 to 0.25 µg/mL.

Q: And the “MIC Coagulase Negative Staphylococcus (GC 4551)” value (Staphylococcus sp.; strain GC 4551)?
A: The value was 0.5 µg/mL (≈ 0.335 µM).

Q: What about the “MIC Coagulase Negative Staphylococcus (GC 6257)” value (Staphylococcus sp.; strain GC 6257) of the same compound?
A: Its value is 0.5 µg/mL (≈ 0.335 µM).

Q: What about the “MIC Escherichia coli (ATCC 25922)” value (Escherichia coli) of the same compound?
A: The value was 32 to 64 µg/mL.

Q: And the “MIC Escherichia coli (GC 4559)” value (Escherichia coli)?
A: The value was 32 µg/mL (≈ 21.5 µM).

Q: And the “MIC Escherichia coli (GC 4560)” value (Escherichia coli)?
A: The value was 0.5 to 2 µg/mL.
